What was measured:
[1] = system: ApoA1 (apolipoprotein A1); test: SREBP-1c target gene expression in HepG2 cells (real time PCR): ApoA1; format: cell-based; details: HepG2 cells stimulated with oleate, 50 μM, 6 hours
Protocol: (§1) HepG2 cells (ATCC) were seeded at 20,000 cells per well in 96 well plates. After adhering overnight, growth media (10% FBS in DMEM) was removed and cells were serum starved for 24 hours in DMEM containing 1% fatty acid free bovine serum albumin (BSA, Sigma). […] Cells were incubated for 6 hours and then washed with PBS. RNA was reverse-transcribed using the cells to cDNA reagents according to standard protocols (outlined in Applied Biosystem StepOne Real-time PCR protocols). Real time PCR of transcripts was performed with Taqman assays for the three specific genes FASN (fatty acid synthase), SCD (steroyl CoA desaturase) and ApoA1 (apolipoprotein A1). In all three cases, 18S-VIC® was used as a normalization control.

[2] = system: FASN (fatty acid synthase); test: SREBP-1c target gene expression in HepG2 cells (real time PCR): FASN; format: cell-based; details: HepG2 cells stimulated with oleate, 50 μM, 6 hours
Protocol: as §1

[3] = system: SCD (steroyl CoA desaturase); test: SREBP-1c target gene expression in HepG2 cells (real time PCR): SCD; format: cell-based; details: HepG2 cells stimulated with oleate, 50 μM, 6 hours
Protocol: as §1

[4] = system: ApoB secretion in HepG2 cells; details: HepG2 cells, 50, 100 and 200 μM; compared to niacin at 5 mM
Protocol: HepG2 cells (ATCC) are seeded at 10,000 cells per well in 96 well plates. After adhering overnight, growth media (10% FBS in DMEM) is removed and cells are serum starved for 24 hours in DMEM containing 0.1% fatty acid free bovine serum albumin (BSA, Sigma). Cells are then treated with a compound. […] All treatments are performed in triplicate. Simultaneous with compound treatment, ApoB secretion is stimulated with addition of 0.1 oleate complexed to fatty acid free BSA in a 5:1 molar ratio. Incubation with a compound and oleate is conducted for 24 hours. Media supernatants are removed and ApoB concentrations are measured using ELISA kits (Mabtech AB). Percent inhibition of ApoB secretion is determined by normalizing data to vehicle treated wells. For a given compound, an IC50 (concentration at which 50% of ApoB secretion is inhibited) can also be determined by using a 4 parameter-fit inhibition curve model (Graph Pad Prism®). In each experiment, cell viability is determined using the ATPlite 1-Step kit (Perkin Elmer), such that compound effects due to cytotoxicity can be monitored.

Healthy human volunteers = test: Plasma triglycerides in healthy human volunteers after NIH high fat breakfast; format: in vivo
Protocol: Healthy human volunteers were divided into 4 treatment groups. The first treatment group was a placebo group (n=6). The other three groups consisted a single oral dose of compound I-8 at either 300 mg (n=6), 1000 mg (n=7) or 2000 mg (n=4). All subjects were given an NIH high fat breakfast in order to induce an elevated level of triglycerides (In a typical NIH high fat breakfast, 450 calories are derived from fat). Compound I-8 was then administered as a single oral dose at the three indicated doses at three different time points: immediately following the high fat meal, 2 hours following the high fat meal and 4 hours following the high fat meal. At each of the time points, plasma triglyceride levels were determined according to standard protocols. […] Based on these dramatic effects on plasma triglycerides levels, compound I-8 and other fatty acid niacin conjugates disclosed in this invention are useful for the treatment of type I hyperlipoproteinemia and type 5 hyperlipoproteinemia.

Male C57BL/6 mice = test: Liver weight gain induced by Lomitapide 10 mg/kg in mice on high fat cholesterol diet; format: in vivo
Description: The objective of this example is to determine if 1-8, a representative compound of the present invention, can abrogate the development of hepatic steatosis induced by oral administration of the MTP inhibitor Lomitapide for 7 days in normal mice.
Male C57BL/6 mice were acclimated to the high fat cholesterol diet (D13093001; 1% cholesterol, 15% cacao butter, 40.5% sucrose and 1% corn oil (Research Diets, Inc. New Brunswick, N.J.) upon arrival at CRO facility. The test diet containing the compound (I-8) sufficient for approx. 3 kg of diet (i.e. 25 g of 1-8 from the invention), was prepared by adding the test compound to melted, hand warm cocoa butter and mixed for 5 min. This mix was then added to the master mix (containing the rest of the ingredients) and mixed thoroughly. The diet was frozen to −20° C. On the subsequent day, the diet was broken into small pellets (approx 5 g per piece) and freeze dried, and stored in vacuum sealed bags (approx 500 g) at −20° C. until used. This diet was designated D13093002. The diets were refreshed daily and unused diet is discarded. Lomitapide delivered via oral gavage formulation (10 mg/kg once daily) or vehicle was dosed as described in Table 1. The volume of each gavage dose delivered (mL/kg) was based on each individual animal's most recent recorded body weight. […]

mice = test: Liver weight gain induced by Lomitapide 1 and 3 mg/kg in mice on high fat cholesterol diet (second study); format: in vivo; details: I-8 0.75% in diet from Day -7 with Lomitapide 1 or 3 mg/kg once daily, Days 1-7
Protocol: A second study was conducted with a longer predosing of 1-8 (7 days versus 3 days) and lower doses of Lomitapide (1 and 3 mg/kg once daily) as described in Table 2. Starting on Day −7 the animals in Groups 1, 2, and 4 received a high-fat cholesterol diet (D13093001, Research Diets, Inc. New Brunswick, N.J.). Similarly, starting on Day −7 the animals in Groups 3 and 5 received a high-fat cholesterol diet w/0.75% 1-8 (D13093002, Research Diets, Inc.). On day −1 all mice received an oral gavage dose of vehicle. The baseline blood sample were collected from each mouse 90 minutes after the vehicle dose and stored as plasma. The volume of each gavage dose delivered (mL/kg) was based on each individual animal's most recent recorded body weight.
Observations were recorded at least twice daily and at each sample collection time point. The presence or absence of any clinical abnormalities was recorded. Body weights were recorded on Day −7, and daily on Day −1 through Day 7 (AM). Interim blood samples were collected and a terminal blood sample was collected on Day 7 by intracardiac puncture following anesthetization with CO2. Each whole blood sample was transferred into tubes containing sodium heparin anticoagulant and placed on ice until processing. Each whole blood sample was centrifuged at 2200×g for 10 minutes at 5° C.+3° C. to isolate plasma. […]

female APOE*3Leiden mice = test: Plasma cholesterol and triglycerides in APOE*3Leiden mice on high cholesterol Western type diet; format: in vivo; details: I-8 0.75% w/w in diet, atorvastatin 0.0015% w/w in diet
Protocol: The study was conducted using female APOE*3Leiden mice (groups of each n=10) and one untreated reference control group on chow (n=5). To induce dyslipidemia, a high cholesterol Western type diet containing 1% cholesterol, 15% cacao butter, 40.5% sucrose and 1% corn oil (WTD) was fed to the mice for a total experimental period of 20 weeks (of which 4 weeks are a run-in period).
The dyslipidemic mice were grouped on the basis of plasma cholesterol at t=0 assayed in 4 h fasting blood. Mice with low cholesterol after the run-in period were excluded so that homogenous experimental groups were obtained. A group of reference mice (n=5) remained on a chow diet during the complete study period (normolipidemic reference mice).
This mix was then added to the master mix (containing the rest of the ingredients) and mixed thoroughly. The diet was frozen to −20° C. On the subsequent day, the diet was broken into small pellets (approx 5 g per piece) and freeze dried, and stored in vacuum sealed bags (approx 500 g) at −20° C. until use. The diets were refreshed daily and unused diet was discarded.
EDTA plasma was collected in weeks −4, 0, 2 and 4 weeks.

[5] = system: ApoB secretion in HepG2 cultures; details: media supernatants of HepG2 cultures (Jin et al. 1999); cited from earlier work
[6] = system: ApoA1 secretion in HepG2 cultures; details: media supernatants of HepG2 cultures (Jin et al. 1997); cited from earlier work

Compound: CC/C=C\C/C=C\C/C=C\C/C=C\C/C=C\C/C=C\CCC(=O)NCCNC(=O)c1cccnc1 [Compound I-7, N-(2-(4Z,7Z,10Z,13Z,16Z,19Z)-docosa-4,7,10,13,16,19-hexaenamidoethyl)nicotinamide]
- ApoA1 gene expression [1]: increase
- FASN gene expression [2]: statistically significant inhibition
- SCD gene expression [3]: statistically significant inhibition
- inhibition of ApoB secretion [4]: significant inhibition

Compound: CC/C=C\C/C=C\C/C=C\C/C=C\C/C=C\CCCC(=O)NCCNC(=O)c1cccnc1 [Compound I-8, N-(2-(5Z,8Z,11Z,14Z,17Z)-eicosa-5,8,11,14,17-pentaenamidoethyl)nicotinamide]
- ApoA1 gene expression [1]: increase
- FASN gene expression [2]: statistically significant inhibition
- reduction in triglycerides (Healthy human volunteers; 2 hour time point following the high fat meal): robust signal was still observed
- reduction in triglycerides (Healthy human volunteers; 4 hour time point following the high fat meal): robust signal was still observed
- plasma triglycerides (Healthy human volunteers; single oral dose 1000 mg, after NIH high fat breakfast): significant reduction
- plasma triglycerides (Healthy human volunteers; single oral dose 2000 mg, after NIH high fat breakfast): significant reduction
- effect on plasma triglycerides (Healthy human volunteers; single oral dose 300, 1000 or 2000 mg, after NIH high fat breakfast): dose-dependent effect
- Lomitapide-increased liver weight on cotreatment (Male C57BL/6 mice; I-8 0.75% in diet with Lomitapide 10 mg/kg once daily, 7 days): completely abrogated
- SCD gene expression [3]: statistically significant inhibition
- Lomitapide-increased liver weight on cotreatment (mice): reduced
- plasma cholesterol (female APOE*3Leiden mice; after 4 weeks of treatment): Comparable level of cholesterol reduction
- plasma triglycerides (female APOE*3Leiden mice; after 4 weeks of treatment): significant reduction
- plasma cholesterol (female APOE*3Leiden mice; t=2 weeks of treatment): statistically significant reduction

Compound: O=C(NC1CCN(CCCCC2(C(=O)NCC(F)(F)F)c3ccccc3-c3ccccc32)CC1)c1ccccc1-c1ccc(C(F)(F)F)cc1 [Lomitapide, reference compound]
- increase in liver weight (Male C57BL/6 mice; Lomitapide alone 10 mg/kg once daily oral gavage, one week, high fat cholesterol diet): 15%

Compound: O=C(O)c1cccnc1 [niacin]
- secretion of ApoB [5]: inhibiting
- secretion of ApoA1 [6]: increase

Source: patent US20150352094A1, “USE OF FATTY ACID NIACIN CONJUGATES FOR TREATING DISEASES” (CATABASIS PHARMACEUTICALS, INC., priority 2013, published 2015)
